Data: ChEMBL document CHEMBL5329155, “Synthesis and pharmacological evaluation of 1,3-diaryl substituted pyrazole based (thio)urea derivatives as potent antimicrobial agents against multi-drug resistant Staphylococcus aureus and Mycobacterium tuberculosis” (RSC Med Chem, 2023)
Values after ≈ are worked out from the molar mass of the structure shown.

Key:
Assay type in all cases: functional
[1] = test system: Staphylococcus aureus; test: Antibacterial activity against Staphylococcus aureus ATCC 29213 assessed as inhibition of bacterial growth measured for 18 to 24 hrs by broth dilution method; conditions: time 18-24 hrs
[2] = test system: Mycobacterium tuberculosis; test: Antimycobacterial activity against Mycobacterium tuberculosis H37Rv ATCC 27294 assessed as inhibition of bacterial growth incubated for 18 to 24 hrs by broth dilution method
[3] = test system: Mycobacterium tuberculosis; test: Antimycobacterial activity against isoniazid-resisitant Mycobacterium tuberculosis ATCC 35822 assessed as inhibition of bacterial growth incubated for 18 to 24 hrs by broth dilution method; conditions: time 18-24 hrs
[4] = test system: Mycobacterium tuberculosis; test: Antimycobacterial activity against ethambutol-resisitant Mycobacterium tuberculosis ATCC 35837 assessed as inhibition of bacterial growth incubated for 18 to 24 hrs by broth dilution method; conditions: time 18-24 hrs
[5] = test system: Mycobacterium tuberculosis; test: Antimycobacterial activity against streptomycin-resisitant Mycobacterium tuberculosis ATCC 35820 assessed as inhibition of bacterial growth incubated for 18 to 24 hrs by broth dilution method; conditions: time 18-24 hrs
[6] = test system: Mycobacterium tuberculosis; test: Antimycobacterial activity against rifampicin-resisitant Mycobacterium tuberculosis ATCC 35838 assessed as inhibition of bacterial growth incubated for 18 to 24 hrs by broth dilution method; conditions: time 18-24 hrs

Row | SMILES | MIC [1] [µg/mL] | MIC [2] [µg/mL] | also measured
1 | COc1cccc(NC(=S)Nc2ccc(-n3ccc(-c4ccc(OC)c(OC)c4)n3)cc2)c1 | > 64 | 16 (≈ 34.7 µM) | –
2 | COc1ccc(-c2ccn(-c3ccc(NC(=S)Nc4ccc(F)cc4)cc3)n2)cc1OC | > 64 | 2 (≈ 4.46 µM) | –
3 | COc1ccc(-c2ccn(-c3ccc(NC(=S)Nc4cc(C(F)(F)F)cc(C(F)(F)F)c4)cc3)n2)cc1OC | 1 (≈ 1.77 µM) | 16 (≈ 28.2 µM) | –
4 | Cc1ccc(-c2ccn(-c3ccc(NC(=O)Nc4ccc(F)cc4F)cc3)n2)cc1 | > 64 | > 64 | –
5 | COc1ccc(-c2ccn(-c3ccc(NC(=S)Nc4ccc(C#N)cc4)cc3)n2)cc1OC | > 64 | 32 (≈ 70.2 µM) | –
6 | O=C(Nc1ccc(-n2ccc(-c3ccc(Cl)cc3)n2)cc1)Nc1ccc(F)cc1F | > 64 | > 64 | –
7 | COc1ccc(-c2cn(-c3ccc(NC(=O)Nc4ccc(F)cc4F)cc3)nn2)cc1OC | > 64 | 8 (≈ 17.7 µM) | –
8 | COc1ccc(-c2ccn(-c3ccc(NC(=O)Nc4cccc(C(F)(F)F)c4)cc3)n2)cc1OC | > 64 | 8 (≈ 16.6 µM) | –
9 | CN[C@@H]1[C@H](O[C@H]2[C@H](O[C@H]3[C@H](O)[C@@H](O)[C@H](N=C(N)N)[C@@H](O)[C@@H]3N=C(N)N)O[C@@H](C)[C@]2(O)C=O)O[C@@H](CO)[C@H](O)[C@H]1O [STREPTOMYCIN] | – | 1 (≈ 1.72 µM) | MIC [3]: 1 µg/mL (≈ 1.72 µM); MIC [4]: 1 µg/mL (≈ 1.72 µM); MIC [5]: > 64 µg/mL; MIC [6]: 1 µg/mL (≈ 1.72 µM)
10 | COc1ccc(-c2ccn(-c3ccc(NC(=O)Nc4cccc(Cl)c4Cl)cc3)n2)cc1OC | > 64 | 16 (≈ 33.1 µM) | –
11 | COc1ccccc1NC(=O)Nc1ccc(-n2ccc(-c3ccc(OC)c(OC)c3)n2)cc1 | > 64 | 32 (≈ 72 µM) | –
12 | COc1ccc(-c2ccn(-c3ccc(NC(=S)Nc4cc(C)cc(C)c4)cc3)n2)cc1OC | > 64 | 8 (≈ 17.4 µM) | –
13 | COc1ccc(-c2ccn(-c3ccc(NC(=S)Nc4ccc([N+](=O)[O-])cc4)cc3)n2)cc1OC | > 64 | 16 (≈ 33.6 µM) | –
14 | COc1ccc(-c2ccn(-c3ccc(NC(=O)Nc4ccc(Cl)cc4Cl)cc3)n2)cc1OC | > 64 | 16 (≈ 33.1 µM) | –
15 | COc1ccc(-c2ccn(-c3ccc(NC(=O)Nc4ccc(Cl)c(C(F)(F)F)c4)cc3)n2)cc1OC | 2 (≈ 3.87 µM) | 4 (≈ 7.74 µM) | –
16 | O=C(Nc1ccc(-n2ccc(-c3ccc4ccccc4c3)n2)cc1)Nc1ccc(Cl)c(Cl)c1 | > 64 | 64 (≈ 135 µM) | –
17 | COc1ccc(-c2ccn(-c3ccc(NC(=O)Nc4c(C)cccc4C)cc3)n2)cc1OC | > 64 | > 64 | –
18 | COc1ccc(-c2ccn(-c3ccc(NC(=O)Nc4ccc(C)c(Cl)c4)cc3)n2)cc1OC | > 64 | 4 (≈ 8.64 µM) | –
19 | COc1ccc(-c2cn(-c3ccc(NC(=O)NCc4ccccc4)cc3)nn2)cc1OC | > 64 | 16 (≈ 37.3 µM) | –
20 | COc1ccc(-c2ccn(-c3ccc(NC(=O)Nc4cccc(F)c4)cc3)n2)cc1OC | > 64 | 32 (≈ 74 µM) | –

Row | SMILES | MIC [1] [µg/mL] | MIC [2] [µg/mL] | also measured
21 | COc1cc(-c2ccn(-c3ccc(NC(=O)Nc4ccc(Cl)c(Cl)c4)cc3)n2)cc(OC)c1OC | > 64 | > 64 | –
22 | O=C(Nc1ccc(-n2ccc(-c3ccc(Cl)cc3Cl)n2)cc1)Nc1ccc(F)cc1F | > 64 | > 64 | –
23 | COc1ccc(-c2ccn(-c3ccc(NC(=O)Nc4ccc(Cl)c(Cl)c4)cc3)n2)cc1 | > 64 | 32 (≈ 70.6 µM) | –
24 | O=C(Nc1ccc(-n2ccc(-c3ccccc3)n2)cc1)Nc1ccc(F)cc1F | > 64 | > 64 | –
25 | COc1ccc(-c2ccn(-c3ccc(NC(=O)Nc4ccccc4C)cc3)n2)cc1OC | > 64 | 16 (≈ 37.3 µM) | –
26 | COc1ccc(-c2ccn(-c3ccc(NC(=S)Nc4cccc(Br)c4)cc3)n2)cc1OC | 64 (≈ 126 µM) | 16 (≈ 31.4 µM) | –
27 | COc1ccc(-c2ccn(-c3ccc(NC(=O)NS(=O)(=O)c4ccccc4)cc3)n2)cc1OC | > 64 | 16 (≈ 33.4 µM) | –
28 | Cc1ccc(-c2ccn(-c3ccc(NC(=O)Nc4ccc(Cl)c(Cl)c4)cc3)n2)cc1 | > 64 | > 64 | –
29 | COc1ccc(-c2ccn(-c3ccc(NC(=S)NCc4ccccc4)cc3)n2)cc1OC | > 64 | 8 (≈ 18 µM) | –
30 | COc1ccc(NC(=S)Nc2ccc(-n3ccc(-c4ccc(OC)c(OC)c4)n3)cc2)cc1 | > 64 | 8 (≈ 17.4 µM) | –
31 | COc1ccc(NC(=S)Nc2ccc(-n3ccc(-c4ccc(OC)c(OC)c4)n3)cc2)c(OC)c1 | > 64 | 32 (≈ 65.2 µM) | –
32 | O=C(Nc1ccc(-n2ccc(-c3ccc(Cl)cc3Cl)n2)cc1)Nc1ccc(Cl)c(Cl)c1 | > 64 | > 64 | –
33 | CCCCCCCNC(=S)Nc1ccc(-n2ccc(-c3ccc(OC)c(OC)c3)n2)cc1 | > 64 | 4 (≈ 8.84 µM) | –
34 | COc1ccc(-c2ccn(-c3ccc(NC(=O)Nc4ccccc4)cc3)n2)cc1OC | > 64 | 8 (≈ 19.3 µM) | –
35 | COc1cc(-c2ccn(-c3ccc(NC(=O)Nc4ccc(F)cc4F)cc3)n2)cc(OC)c1OC | > 64 | 8 (≈ 16.7 µM) | –
36 | COc1ccc(-c2ccn(-c3ccc(NC(=S)Nc4cccc(Cl)c4)cc3)n2)cc1OC | > 64 | 16 (≈ 34.4 µM) | –
37 | O=C(Nc1ccc(-n2ccc(-c3ccc4ccccc4c3)n2)cc1)Nc1ccc(F)cc1F | > 64 | > 64 | –
38 | O=C(NCc1ccccc1)Nc1ccc(-n2ccc(-c3cccnc3)n2)cc1 | > 64 | 8 (≈ 21.7 µM) | –
39 | COc1ccc(-c2ccn(-c3ccc(NC(=S)Nc4ccccc4)cc3)n2)cc1OC | > 64 | 8 (≈ 18.6 µM) | –
40 | O=C(NCc1ccccc1)Nc1ccc(-n2ccc(-c3ccc(Cl)cc3)n2)cc1 | > 64 | > 64 | –

Row | SMILES | MIC [1] [µg/mL] | MIC [2] [µg/mL] | also measured
41 | O=C(Nc1ccc(-n2ccc(-c3cccnc3)n2)cc1)Nc1ccc(F)cc1F | > 64 | 8 (≈ 20.4 µM) | –
42 | COc1ccc(-c2ccn(-c3ccc(NC(=S)Nc4cccc5ccccc45)cc3)n2)cc1OC | > 64 | 16 (≈ 33.3 µM) | –
43 | COc1ccc(-c2ccn(-c3ccc(NC(=S)Nc4ccc(F)c(Cl)c4)cc3)n2)cc1OC | > 64 | 16 (≈ 33.1 µM) | –
44 | O=C(NCc1ccccc1)Nc1ccc(-n2ccc(-c3ccc(Cl)cc3Cl)n2)cc1 | > 64 | 64 (≈ 146 µM) | –
45 | COc1ccc(-c2ccn(-c3ccc(NC(=O)Nc4cccc(Cl)c4)cc3)n2)cc1OC | 2 (≈ 4.46 µM) | 16 (≈ 35.6 µM) | –
46 | O=C(NCc1ccccc1)Nc1ccc(-n2ccc(-c3ccccc3)n2)cc1 | > 64 | > 64 | –
47 | COc1ccc(-c2ccn(-c3ccc(NC(=S)Nc4ccc(Cl)cc4)cc3)n2)cc1OC | > 64 | 8 (≈ 17.2 µM) | –
48 | COc1ccc(-c2ccn(-c3ccc(NC(=S)Nc4ccc(F)cc4F)cc3)n2)cc1OC | > 64 | 16 (≈ 34.3 µM) | –
49 | O=C(NCc1ccccc1)Nc1ccc(-n2ccc(-c3ccc4ccccc4c3)n2)cc1 | > 64 | 64 (≈ 153 µM) | –
50 | COc1ccc(-c2ccn(-c3ccc(NC(=O)Nc4ccc(F)cc4F)cc3)n2)cc1 | > 64 | 8 (≈ 19 µM) | –
51 | O=C(Nc1ccc(-n2ccc(-c3ccc(Cl)cc3)n2)cc1)Nc1ccc(Cl)c(Cl)c1 | > 64 | 8 (≈ 17.5 µM) | –
52 | COc1ccc(-c2ccn(-c3ccc(NC(=S)Nc4ccc(C)cc4)cc3)n2)cc1OC | > 64 | 64 (≈ 144 µM) | –
53 | COc1ccc(-c2cn(-c3ccc(NC(=O)Nc4ccc(Cl)c(Cl)c4)cc3)nn2)cc1OC | 4 (≈ 8.26 µM) | > 64 | –
54 | COc1ccc(-c2ccn(-c3ccc(NC(=O)Nc4cc(Cl)ccc4Cl)cc3)n2)cc1OC | > 64 | > 64 | –
55 | COc1ccc(-c2ccn(-c3ccc(NC(=O)NCc4ccccc4)cc3)n2)cc1 | > 64 | > 64 | –
56 | Cc1ccc(-c2ccn(-c3ccc(NC(=O)NCc4ccccc4)cc3)n2)cc1 | > 64 | > 64 | –
57 | O=C(Nc1ccc(-n2ccc(-c3cccnc3)n2)cc1)Nc1ccc(Cl)c(Cl)c1 | > 64 | 16 (≈ 37.7 µM) | –
58 | COc1ccc(-c2ccn(-c3ccc(NC(=S)NC4CCCCC4)cc3)n2)cc1OC | > 64 | 16 (≈ 36.6 µM) | –
59 | COc1ccc(-c2ccn(-c3ccc(NC(=S)Nc4ccc(C(F)(F)F)cc4)cc3)n2)cc1OC | 2 (≈ 4.01 µM) | 2 (≈ 4.01 µM) | –
60 | O=C(Nc1ccc(-n2ccc(-c3ccccc3)n2)cc1)Nc1ccc(Cl)c(Cl)c1 | > 64 | 64 (≈ 151 µM) | –
